Data taken from the NIST ThermoML archive (doi:10.1021/je9010486).

Experiment: cn = amount concentration of the nth substance listed, in mol/dm3
Settings: 101 kPa, Liquid

OC[C@@H](O)[C@@H](O[C@H]1O[C@H](CO)[C@@H](O)[C@H](O)[C@H]1O)[C@H](O)[C@@H](O)CO [4-O-α-D-glucopyranosyl-D-glucitol] + O
Settings | mass density, 293.15 K [kg/m3] | mass density, 303.15 K [kg/m3] | mass density, 313.15 K [kg/m3] | mass density, 323.15 K [kg/m3] | viscosity, 293.15 K [mPa·s] | viscosity, 303.15 K [mPa·s] | viscosity, 313.15 K [mPa·s] | viscosity, 323.15 K [mPa·s]
c1 = 0.1 | 1009.45 | 1007.32 | 1003.78 | 999.68 | 1.274 | 0.8869 | 0.6982 | 0.6083
c1 = 0.2 | 1018.37 | 1016.24 | 1012.7 | 1008.6 | 1.381 | 0.9747 | 0.7706 | 0.652
c1 = 0.3 | 1027.29 | 1025.16 | 1021.62 | 1017.52 | 1.513 | 1.104 | 0.8464 | 0.7175
c1 = 0.4 | 1036.21 | 1034.08 | 1030.54 | 1026.44 | 1.66 | 1.225 | 0.9455 | 0.7827
c1 = 0.5 | 1045.13 | 1043 | 1039.46 | 1035.36 | 1.848 | 1.361 | 1.06 | 0.8723
c1 = 0.6 | 1054.05 | 1051.92 | 1048.38 | 1044.28 | 2.009 | 1.536 | 1.177 | 0.9616
c1 = 0.7 | 1062.97 | 1060.84 | 1057.3 | 1053.2 | 2.173 | 1.684 | 1.301 | 1.061
c1 = 0.8 | 1071.89 | 1069.76 | 1066.22 | 1062.12 | 2.304 | 1.825 | 1.438 | 1.15
c1 = 0.9 | 1080.81 | 1078.68 | 1075.14 | 1071.04 | 2.49 | 1.947 | 1.591 | 1.242
c1 = 1 | 1089.73 | 1087.6 | 1084.06 | 1079.96 | 2.68 | 2.132 | 1.741 | 1.385

OC[C@@H](O)[C@@H](O)[C@H](O)[C@@H](O)CO [D-sorbitol] + O
Settings | mass density, 293.15 K [kg/m3] | mass density, 303.15 K [kg/m3] | mass density, 313.15 K [kg/m3] | mass density, 323.15 K [kg/m3] | viscosity, 293.15 K [mPa·s] | viscosity, 303.15 K [mPa·s] | viscosity, 313.15 K [mPa·s] | viscosity, 323.15 K [mPa·s]
c1 = 0.1 | 1004.76 | 1002.12 | 998.58 | 994.32 | 1.088 | 0.8619 | 0.6892 | 0.5711
c1 = 0.2 | 1011.23 | 1008.52 | 1004.89 | 1000.54 | 1.113 | 0.8842 | 0.7109 | 0.5983
c1 = 0.3 | 1017.64 | 1014.83 | 1011.14 | 1006.75 | 1.168 | 0.9329 | 0.7399 | 0.6199
c1 = 0.4 | 1024.07 | 1021.15 | 1017.37 | 1012.93 | 1.22 | 0.9794 | 0.7849 | 0.6596
c1 = 0.5 | 1029.89 | 1026.88 | 1023.01 | 1018.5 | 1.275 | 1.029 | 0.8127 | 0.6841
c1 = 0.6 | 1036.94 | 1033.82 | 1029.9 | 1025.33 | 1.33 | 1.079 | 0.8573 | 0.7037
c1 = 0.7 | 1043.32 | 1040.11 | 1036.08 | 1031.44 | 1.394 | 1.136 | 0.8885 | 0.7392
c1 = 0.8 | 1049.36 | 1046.04 | 1041.95 | 1037.25 | 1.466 | 1.202 | 0.931 | 0.7779
c1 = 0.9 | 1056.16 | 1052.72 | 1048.48 | 1043.79 | 1.531 | 1.26 | 0.9849 | 0.8178
c1 = 1 | 1062.52 | 1058.99 | 1054.72 | 1049.92 | 1.608 | 1.329 | 1.03 | 0.8541

OC[C@@H](O)[C@@H](O)[C@H](O)[C@H](O)CO [mannitol] + O
Settings | mass density, 293.15 K [kg/m3] | mass density, 303.15 K [kg/m3] | mass density, 313.15 K [kg/m3] | mass density, 323.15 K [kg/m3] | viscosity, 293.15 K [mPa·s] | viscosity, 303.15 K [mPa·s] | viscosity, 313.15 K [mPa·s] | viscosity, 323.15 K [mPa·s]
c1 = 0.1 | 1004.82 | 1002.13 | 998.28 | 994.21 | 1.096 | 0.8694 | 0.6961 | 0.5782
c1 = 0.2 | 1010.89 | 1008.14 | 1004.5 | 999.82 | 1.143 | 0.9398 | 0.7468 | 0.6062
c1 = 0.3 | 1016.96 | 1014.15 | 1010.72 | 1005.23 | 1.203 | 0.986 | 0.7918 | 0.6356
c1 = 0.4 | 1023.03 | 1020.16 | 1016.94 | 1011.02 | 1.285 | 1.036 | 0.8201 | 0.6706
c1 = 0.5 | 1029.1 | 1026.17 | 1023.16 | 1017.33 | 1.336 | 1.085 | 0.8642 | 0.7104
c1 = 0.6 | 1035.17 | 1032.18 | 1029.38 | 1024.45 | 1.4 | 1.142 | 0.8954 | 0.7458
c1 = 0.7 | 1041.24 | 1038.19 | 1035.6 | 1030.32 | 1.472 | 1.197 | 0.9383 | 0.7849
c1 = 0.8 | 1047.31 | 1044.2 | 1041.82 | 1036.78 | 1.553 | 1.253 | 0.9934 | 0.8456
